Assay [1] concerns the target V2 (Homo sapiens, UniProt P30518). As to the kind of experiment: In vitro recombinant vasopressin receptor binding assay (V2 Bdg), displacement of 3H-arginine vasopressin. Particulars: for IC50: membrane with cloned human V-2 receptor (HEK-293); for V2 Bdg % inh: 0.1 uM, printed in parentheses in place of IC50; for inhibition at 0.1 µM: read-out: V2 Bdg % inh. The arrangement: expressed in transfected cells; host or cells: HEK-293. As to the method: (§1) In vitro Recombinant Vasopressin Receptor Binding Assay
Compounds were assessed for their ability to displace ^3H-arginine vasopressin from the human V-1 or V-2 receptor in HEK-293 cells. […] Into wells of 96-well round bottom polypropylene plates were added buffer, test compound, membrane (containing cloned human V-1 or V-2 receptor), and ^3H-vasopressin. The reaction plates were allowed to sit at room temperature for one hour. The samples were filtered through Unifilter GF/C plates (presoaked in 0.3 polyethyleneimine). The plates were washed 5 times with cold physiological saline containing 0.05% Tween 20. After drying, the bottom of the filter plates were sealed and 0.025 ml of Microscint-20 was added to each filter. The top of the plate was sealed, and the plate was counted.

Assay [2] addresses T1, human V-1 receptor (Homo sapiens, UniProt P37288).
T1 construct: expressed in transfected cells; host or cells: HEK-293
As to the kind of experiment: In vitro recombinant vasopressin receptor binding assay (V1 Bdg), displacement of 3H-arginine vasopressin. Particulars: for inhibition at 0.1 µM: read-out: V1 Bdg (% inh, 0.1 uM); for V1 Bdg % inh: 1 uM. As to the method:
as §1
Compounds were assessed for their ability to displace ^3H-arginine vasopressin from the human V-1 or V-2 receptor in HEK-293 cells. Assay buffer is 50 mM Tris-Cl, 5 mM MgCl2, 0.1% BSA (pH 7.5) containing 5 ug/ml of aprotinin, leupeptin, pepstatin, 50 ug/ml bacitracin, and 1 mM Pefabloc. ^3H-vasopressin is ^3H-arginine-8-vasopressin (68.5 Ci/mmol, final concentration in assay is 0.65-0.75 nM). Into wells of 96-well round bottom polypropylene plates were added buffer, test compound, membrane (containing cloned human V-1 or V-2 receptor), and ^3H-vasopressin. The reaction plates were allowed to sit at room temperature for one hour. The samples were filtered through Unifilter GF/C plates (presoaked in 0.3 polyethyleneimine). The plates were washed 5 times with cold physiological saline containing 0.05% Tween 20. After drying, the bottom of the filter plates were sealed and 0.025 ml of Microscint-20 was added to each filter. The top of the plate was sealed, and the plate was counted. Non-specific binding was determined by the addition of 1.25 uM arginine-8-vasopressin in those wells.
Background: Loss of bound radioactivity is the signal in a displacement assay; it reports binding, not function.

A word on the IC50: it is the concentration needed to halve the response being measured.

T1 sequence (P37288 whole entry): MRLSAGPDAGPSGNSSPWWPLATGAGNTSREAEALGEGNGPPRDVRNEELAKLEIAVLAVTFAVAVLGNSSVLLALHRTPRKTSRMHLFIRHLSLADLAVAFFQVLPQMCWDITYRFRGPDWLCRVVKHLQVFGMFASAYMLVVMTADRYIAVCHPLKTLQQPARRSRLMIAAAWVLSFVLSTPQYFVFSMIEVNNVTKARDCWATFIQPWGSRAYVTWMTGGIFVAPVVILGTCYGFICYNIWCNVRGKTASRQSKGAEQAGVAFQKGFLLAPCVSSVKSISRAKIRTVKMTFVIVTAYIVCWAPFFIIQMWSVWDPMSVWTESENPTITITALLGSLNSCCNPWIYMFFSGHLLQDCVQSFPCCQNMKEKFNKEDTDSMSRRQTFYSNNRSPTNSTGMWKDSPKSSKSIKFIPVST

For the molecule `Cc1cccc(C)c1C(=O)Nc1ccc(C(=O)N2CC3COCCN3Cc3ccccc32)c(Cl)c1` (racemic) [Compound 10, (RS)-2,6-Dimethyl-N-[3-chloro-4-(1,3,4,12a-tetrahydro-6H-[1,4]oxazino[4,3-a][1,4]-benzodiazepin-11(12H)-yl-carbonyl)phenyl]benzamide], the IC50 in assay [1] was determined as 9 nM. In addition, the inhibition at 0.1 µM in assay [2] is 15%.

As for `COc1ccc(-c2ccccc2C(=O)Nc2ccc(C(=O)N3CC4CN(C)CCN4Cc4ccccc43)c(Cl)c2)cc1` (racemic) [Compound 67, (RS)-2-(4-Methoxy-phenyl)-N-[3-chloro-4-(1,3,4,12a-tetrahydro-2-methyl-6H-[1,4]pyrazino[4,3-a][1,4]-benzodiazepin-11(12H)-yl-carbonyl)phenyl]benzamide], the “V2 Bdg % inh” value in assay [1] is given as “(36%/0.1 uM)”. Moreover, the “V1 Bdg % inh” value in assay [2] is recorded as “(14%/1 uM)”.

Take `COc1cc(C(=O)N2CC3COCCN3Cc3ccccc32)ccc1NC(=O)c1ccccc1-c1ccccc1` (racemic) [Compound 15, (RS)-2-Phenyl-N-[2-methoxy-4-(1,3,4,12a-tetrahydro-6H-[1,4]oxazino[4,3-a][1,4]-benzodiazepin-11(12H)-yl-carbonyl)phenyl]benzamide]: the IC50 in assay [1] stood at 13 nM. In assay [2], the inhibition at 0.1 µM was determined as 69%.

Regarding `COc1cccc(-c2ccccc2C(=O)Nc2ccc(C(=O)N3CC4CN(C)CCN4Cc4ccccc43)c(Cl)c2)c1` (racemic) [Compound 68, (RS)-2-(3-Methoxy-phenyl)-N-[3-chloro-4-(1,3,4,12a-tetrahydro-2-methyl-6H-[1,4]pyrazino[4,3-a][1,4]-benzodiazepin-11(12H)-yl-carbonyl)phenyl]benzamide], the “V2 Bdg % inh” value in assay [1] was “(37%/0.1 uM)”. Besides, the “V1 Bdg % inh” value in assay [2] is listed as “(7%/1 uM)”.

On to `O=C(Nc1ccc(C(=O)N2C[C@H]3COCCN3Cc3ccccc32)c(Cl)c1)c1ccccc1-c1cccc(O)c1` [Compound 7, (S)-2-(3-Hydroxyphenyl)-N-[3-chloro-4-(1,3,4,12a-tetrahydro-6H-[1,4]oxazino[4,3-a][1,4]-benzodiazepin-11(12H)-yl-carbonyl)phenyl]benzamide], for which the 50% inhibitory concentration (IC50) in assay [1] amounted to 11 nM. The inhibition at 0.1 µM in assay [2] came to 1%.

As to `O=C(Nc1ccc(C(=O)N2C[C@H]3COCCN3Cc3ccccc32)c(Cl)c1)c1ccc(O)cc1-c1ccccc1` [Compound 6, (S)-2-Phenyl-4-hydroxy-N-[3-chloro-4-(1,3,4,12a-tetrahydro-6H-[1,4]oxazino[4,3-a][1,4]-benzodiazepin-11(12H)-yl-carbonyl)phenyl]benzamide], the inhibition at 0.1 µM in assay [2] came out at 49%.

With `COc1cc(C(=O)N2CC3CN(C)CCN3Cc3ccccc32)ccc1NC(=O)c1ccccc1C` (racemic) [Compound 71, (RS)-2-Methyl-N-[2-methoxy-4-(1,3,4,12a-tetrahydro-2-methyl-6H-[1,4]pyrazino[4,3-a][1,4]-benzodiazepin-11(12H)-yl-carbonyl)phenyl]benzamide], the “V1 Bdg % inh” value in assay [2] is “(12%/1 uM)”.

For “(RS)-2,3-Difluoro-N-[3-chloro-4-(1,3,4,12a-tetrahydro-2-methyl-6H-[1,4]pyrazino[4,3-a][1,4]-benzodiazepin-11(12H)-yl-carbonyl)phenyl]benzamide [Compound 101]”, the “V1 Bdg % inh” value in assay [2] is “(6%/1 uM)”.

With `COc1ccc(C(=O)Nc2ccc(C(=O)N3CC4COCCN4Cc4ccccc43)c(Cl)c2)c(-c2ccccc2)c1` (racemic) [Compound 115, (RS)-2-Phenyl-4-methoxy-N-[3-chloro-4-(1,3,4,12a-tetrahydro-6H-[1,4]oxazino[4,3-a][1,4]-benzodiazepin-11(12H)-yl-carbonyl)phenyl]benzamide], the IC50 in assay [1] worked out at 9 nM.

For the molecule `COc1cccc2c1N(C(=O)c1ccc(NC(=O)c3ccccc3-c3ccccc3)cc1)CC1CSCCN1C2` (racemic) [Compound 40, (RS)-2-Phenyl-N-[4-(10-methoxy-1,3,4,12a-tetrahydro-6H-[1,4]thiazino[4,3-a][1,4]-benzodiazepin-11(12H)-yl-carbonyl)phenyl]benzamide], the inhibition at 0.1 µM in assay [1] worked out at 12%.

Take `COc1ccc(-c2ccccc2)c(C(=O)Nc2ccc(C(=O)N3CC4COCCN4Cc4ccccc43)c(Cl)c2)c1` (racemic) [Compound 116, (RS)-2-Phenyl-5-methoxy-N-[3-chloro-4-(1,3,4,12a-tetrahydro-6H-[1,4]oxazino[4,3-a][1,4]-benzodiazepin-11(12H)-yl-carbonyl)phenyl]benzamide]: in assay [1], the IC50 was 37 nM.

Consider `O=C(Nc1ccc(C(=O)N2CC3CSCCN3Cc3ccccc32)c(F)c1)c1ccccc1-c1ccccc1` (racemic) [Compound 106, (RS)-2-Phenyl-N-[3-fluoro-4-(1,3,4,12a-tetrahydro-6H-[1,4]thiazinol[4,3-a][1,4]-benzodiazepin-11(12H)-yl-carbonyl)phenyl]benzamide], for which the IC50 in assay [1] came out at 22 nM.

Consider `O=C(Nc1ccc(C(=O)N2CC3CSCCN3Cc3ccccc32)c(Cl)c1)c1ccccc1-c1ccsc1` (racemic) [Compound 50, (RS)-2-(3-Thienyl)-N-[3-chloro-4-(1,3,4,12a-tetrahydro-6H-[1,4]thiazino[4,3-a][1,4]-benzodiazepin-11(12H)-yl-carbonyl)phenyl]benzamide], for which the IC50 in assay [1] was 40 nM.

Consider `Cc1ccc(-c2ccccc2C(=O)Nc2ccc(C(=O)N3CC4COCCN4Cc4ccccc43)cc2)cc1` (racemic) [Compound 12, (RS)-2-(4-Methyl-phenyl)-N-[4-(1,3,4,12a-tetrahydro-6H-[1,4]oxazino[4,3-a][1,4]-benzodiazepin-11(12H)-yl-carbonyl)phenyl]benzamide], for which the IC50 in assay [1] is 6 nM.

Take `CC(C)N1CCN2Cc3ccccc3N(C(=O)c3ccc(NC(=O)c4ccccc4-c4ccccc4)cc3Cl)CC2C1` (racemic) [Compound 60, (RS)-2-Phenyl-N-[3-chloro-4-(1,3,4,12a-tetrahydro-2-isopropyl-6H-[1,4]pyrazino[4,3-a][1,4]-benzodiazepin-11(12H)-yl-carbonyl)phenyl]benzamide]: in assay [1], the “V2 Bdg % inh” value is on record as “(25%/0.1 uM)”.

In the case of `Cc1ccc(F)cc1C(=O)Nc1ccc(C(=O)N2CC3COCCN3Cc3ccccc32)c(Cl)c1` (racemic) [Compound 110, (RS)-2-Methyl-5-fluoro-N-[3-chloro-4-(1,3,4,12a-tetrahydro-6H-[1,4]oxazino[4,3-a][1,4]-benzodiazepin-11(12H)-yl-carbonyl)phenyl]benzamide], the IC50 in assay [1] was found to be 6 nM.

Consider “(RS)-2,6-Dimethyl-N-[3-chloro-4-(1,3,4,12a-tetrahydro-2-methyl-6H-[1,4]pyrazino[4,3-a][1,4]-benzodiazepin-11(12H)-yl-carbonyl)phenyl]benzamide [Compound 63]”, for which, in assay [1], the “V2 Bdg % inh” value is “(9%/0.1 uM)”.

On to `O=C(Nc1ccc(C(=O)N2CC3CS(=O)(=O)CCN3Cc3ccccc32)cc1)c1ccccc1-c1ccccc1` (racemic) [Compound 55, (RS)-2-Phenyl-N-[4-(1,3,4,12a-tetrahydro-2,2-dioxo-6H-[1,4]thiazino[4,3-a][1,4]-benzodiazepin-11(12H)-yl-carbonyl)phenyl]benzamide], for which the IC50 in assay [1] was 140 nM.

In the case of `COc1ccc(-c2ccccc2C(=O)Nc2ccc(C(=O)N3CC4COCCN4Cc4ccccc43)c(Cl)c2)cc1` (racemic) [Compound 112, (RS)-2-(4-Methoxy-phenyl)-N-[3-chloro-4-(1,3,4,12a-tetrahydro-6H-[1,4]oxazino[4,3-a][1,4]-benzodiazepin-11(12H)-yl-carbonyl)phenyl]benzamide], the IC50 in assay [1] was 6 nM.

Regarding `COc1cc(C(=O)N2CC3CN(C)CCN3Cc3ccccc32)ccc1NC(=O)c1ccccc1-c1ccc(C)cc1` (racemic) [Compound 73, (RS)-2-(4-Methyl-phenyl)-N-[2-methoxy-4-(1,3,4,12a-tetrahydro-2-methyl-6H-[1,4]pyrazino[4,3-a][1,4]-benzodiazepin-11(12H)-yl-carbonyl)phenyl]benzamide], in assay [1], the concentration for half-maximal inhibition (IC50) was determined as 43 nM and the inhibition at 0.1 µM is 73%.

As for `COc1cccc(-c2ccccc2C(=O)Nc2ccc(C(=O)N3CC4COCCN4Cc4ccccc43)c(Cl)c2)c1` (racemic) [Compound 113, (RS)-2-(3-Methoxy-phenyl)-N-[3-chloro-4-(1,3,4,12a-tetrahydro-6H-[1,4]oxazino[4,3-a][1,4]-benzodiazepin-11(12H)-yl-carbonyl)phenyl]benzamide], the IC50 in assay [1] is 8 nM.

On to `O=C(Nc1ccc(C(=O)N2CC3CSCCN3Cc3ccccc32)c(Cl)c1)c1cc(F)ccc1-c1ccccc1` (racemic) [Compound 104, (RS)-2-Phenyl-5-fluoro-N-[3-chloro-4-(1,3,4,12a-tetrahydro-6H-[1,4]thiazino[4,3-a][1,4]-benzodiazepin-11(12H)-yl-carbonyl)phenyl]benzamide], for which the IC50 in assay [1] was determined as 79 nM.

Values taken from US6713475B2, “Tricyclic benzodiazepines as vasopressin receptor antagonists” (Ortho-McNeil Pharmaceutical, Inc., priority 1999, dated 2004).
